One experiment has as its target CSNK1D (Homo sapiens (Human), UniProt P48730). The experiment can be described thus: CSNK1D Assay (ADP-Glo, 1 μM ATP). The format is biochemical. Particulars: median, read-out: CSNK1D IC50 [mol/l] (median). How it is done: CSNK1D-inhibitory activity of compounds of the present invention in presence of 1 μM adenosine-tri-phosphate (ATP) was quantified employing the CSNK1 D assay as described in the following paragraphs. In essence, the enzyme activity is measured by quantification of the adenosine-di-phosphate (ADP), which is generated as a co-product of the enzyme reaction, via the “ADP-Glo™ Kinase Assay” kit from the company Promega. This detection system works as follows: In a first step the ATP not consumed in the kinase reaction is quantitatively converted to cAMP employing an adenylate cyclase (“ADP-Glo-reagent”), then the adenylate cyclase is stopped and the ADP generated in the kinase reaction converted to ATP which generates in a luciferase-based reaction a glow-luminescence signal (“Kinase Detection Reagent”).
As substrate for the kinase reaction the biotinylated peptide Btn-Ahx-[…] (C-terminus in amide form) was used which can be purchased e.g. from the company Biosyntan (Berlin-Buch, Germany).
For the assay 50 nl of a 100 fold concentrated solution of the test compound in DMSO was pipetted into a white 1536-well microtiter plate (Greiner Bio-One, Frickenhausen, Germany), 2 μL of a solution of CSNK1D in aqueous assay buffer [50 mM HEPES pH 7.5, 10% (v/v) glycerol, 10 mM MgCl2, 50 mM NaCl, 1 mM dithiothreitol, 0.01% (w/v) bovine serum albumin, 0.01% (v/v) Triton X-100] were added and the mixture was incubated for 15 min at 22° C. to allow pre-binding of the test compounds to the enzyme before the start of the kinase reaction. […] The concentration of CSNK1D was adjusted depending of the activity of the enzyme lot and was chosen appropriate to have the assay in the linear range, a typical concentration is about 0.5 ng/μL. The reaction was stopped by the addition of 2.5 μL of “ADP-Glo-reagent” (1:1.5 fold diluted with water) and the resulting mixture was incubated at 22° C. for 1 h to convert the ATP not consumed in the kinase reaction completely […]. Subsequently 2.5 μL of the “kinase detection reagent” (1.2 fold more concentrated than recommended by the producer) were added, the resulting mixture was incubated at 22° C. for 1 h and then the luminescence measured with a suitable measurement instrument (e.g. Viewlux™ from Perkin-Elmer). The amount of emitted light was taken as a measure for the amount of ADP generated and thereby for the activity of the CSNK1D.
In general terms: ADP-Glo first removes unused ATP, then detects ADP through luciferase.

In a further experiment the target is CSNK1A1 (Homo sapiens (Human), UniProt P48729). The experiment can be described thus: CSNK1A1 Assay 2 (ADP-Glo, 1 μM ATP). The format is biochemical. Particulars: median, read-out: CSNK1A1 Assay 2 IC50 [mol/l] (median). How it is done:
CSNK1A1-inhibitory activity of compounds of the present invention in presence of 1 μM adenosine-tri-phosphate (ATP) was quantified employing the CSNK1A1 assay as described in the following paragraphs. In essence, the enzyme activity is measured by quantification of the adenosine-di-phosphate (ADP), which is generated as a co-product of the enzyme reaction, via the “ADP-Glo™ Kinase Assay” kit from the company Promega. This detection system works as follows: In a first step the ATP not consumed in the kinase reaction is quantitatively converted to cAMP employing an adenylate cyclase (“ADP-Glo-reagent”), then the adenylate cyclase is stopped and the ADP generated in the kinase reaction converted to ATP which generates in a luciferase-based reaction a glow-luminescence signal (“Kinase Detection Reagent”).
As substrate for the kinase reaction the biotinylated peptide biotin-Ahx-KRRRAL-pS-VASLPGL (C-terminus in amide form) was used which can be purchased e.g. from the company Biosyntan (Berlin-Buch, Germany).
For the assay 50 nl of a 100 fold concentrated solution of the test compound in DMSO was pipetted into a white 1536-well microtiter plate (Greiner Bio-One, Frickenhausen, Germany), 2 μL of a solution of CSNK1A1 in aqueous assay buffer [50 mM HEPES pH 7.5, 10% (v/v) glycerol, 10 mM MgCl2, 50 mM NaCl, 1 mM dithiothreitol, 0.01% (w/v) bovine serum albumin, 0.01% (v/v) Triton X-100] were added and the mixture was incubated for 15 min at 22° C. to allow pre-binding of the test compounds to the enzyme before the start of the kinase reaction. […] The concentration of CSNK1A1 was adjusted depending of the activity of the enzyme lot and was chosen appropriate to have the assay in the linear range, a typical concentrations are about 0.0375 ng/μL. The reaction was stopped by the addition of 2.5 μL of “ADP-Glo-reagent” (1:1.5 fold diluted with water) and the resulting mixture was incubated at 22° C. for 1 h to convert the ATP not consumed in the kinase reaction completely […]. Subsequently 2.5 μL of the “kinase detection reagent” (1.2 fold more concentrated than recommended by the producer) were added, the resulting mixture was incubated at 22° C. for 1 h and then the luminescence measured with a suitable measurement instrument (e.g. Viewlux™ from Perkin-Elmer). The amount of emitted light was taken as a measure for the amount of ADP generated and thereby for the activity of the CSNK1A1.

Sequence of CSNK1A1 (P48729 whole entry): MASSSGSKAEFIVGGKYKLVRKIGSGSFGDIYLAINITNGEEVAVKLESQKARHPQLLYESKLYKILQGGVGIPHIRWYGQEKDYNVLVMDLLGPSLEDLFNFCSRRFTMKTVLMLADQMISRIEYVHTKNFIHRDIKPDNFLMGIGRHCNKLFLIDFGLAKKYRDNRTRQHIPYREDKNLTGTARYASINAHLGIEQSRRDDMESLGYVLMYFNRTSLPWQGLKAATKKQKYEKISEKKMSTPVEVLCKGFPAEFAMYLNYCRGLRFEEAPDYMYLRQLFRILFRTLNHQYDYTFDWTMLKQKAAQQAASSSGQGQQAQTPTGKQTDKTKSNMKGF
Sequence of CSNK1D (P48730 whole entry): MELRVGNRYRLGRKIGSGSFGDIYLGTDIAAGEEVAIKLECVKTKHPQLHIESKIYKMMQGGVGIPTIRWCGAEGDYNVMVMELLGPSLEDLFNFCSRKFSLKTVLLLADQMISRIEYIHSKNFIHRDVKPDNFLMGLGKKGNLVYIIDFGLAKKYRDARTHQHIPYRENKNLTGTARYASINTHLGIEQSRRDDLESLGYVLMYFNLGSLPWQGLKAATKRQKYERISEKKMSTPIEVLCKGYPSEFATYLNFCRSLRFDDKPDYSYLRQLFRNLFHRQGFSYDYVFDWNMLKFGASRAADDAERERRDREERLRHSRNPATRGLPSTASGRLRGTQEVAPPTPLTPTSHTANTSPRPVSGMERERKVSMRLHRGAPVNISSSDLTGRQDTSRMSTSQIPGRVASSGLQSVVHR

In the case of `Cn1cc(CC2CC2)c2[nH]c(-c3ccnc(NC(=O)C(CC(F)F)c4ccc(F)cc4)c3)c(-c3ccccc3)c2c1=O` (racemic) [Example 60, N-{4-[7-(cyclopropylmethyl)-5-methyl-4-oxo-3-phenyl-4,5-dihydro-1H-pyrrolo[3,2-c]pyridin-2-yl]pyridin-2-yl}-4,4-difluoro-2-(4-fluorophenyl)butanamide], the figures for the IC50 on CSNK1D and at CSNK1A1 were 9.5 nM and 15 nM, respectively.
Regarding `CC(C(=O)Nc1cc(-c2[nH]c3c(CC(F)(F)F)cn(C)c(=O)c3c2-c2ccccc2)ccn1)c1ccc(F)cc1` (single isomer, unassigned; (+)) [Example 15, (+)-2-(4-fluorophenyl)-N-{4-[5-methyl-4-oxo-3-phenyl-7-(2,2,2-trifluoroethyl)-4,5-dihydro-1H-pyrrolo[3,2-c]pyridin-2-yl]pyridin-2-yl}propanamide], the IC50 at CSNK1D was 2.8 nM; at CSNK1A1, 2.3 nM.
On the same counts, the results for `CC(C(=O)Nc1cc(-c2[nH]c3c(CC(F)(F)F)cn(C)c(=O)c3c2-c2ccc(F)cc2)ccn1)c1ccc(F)cc1` (single isomer, unassigned; (+)) [Example 24, (+)-2-(4-fluorophenyl)-N-{4-[3-(4-fluorophenyl)-5-methyl-4-oxo-7-(2,2,2-trifluoroethyl)-4,5-dihydro-1H-pyrrolo[3,2-c]pyridin-2-yl]pyridin-2-yl}propanamide] are 4 nM and 4.5 nM.
`CC1(C)CNC(=O)c2c1[nH]c(-c1ccnc(NC(=O)Cc3ccc(F)cc3)c1)c2-c1ccccc1` [Example 42, N-[4-(7,7-dimethyl-4-oxo-3-phenyl-4,5,6,7-tetrahydro-1H-pyrrolo[3,2-c]pyridin-2-yl)pyridin-2-yl]-2-(4-fluorophenyl)acetamide]: the IC50 at CSNK1D is 2.1 nM; on CSNK1A1 it was 1.2 nM.
As for `CC(C(=O)Nc1cc(-c2[nH]c3c(c2-c2ccccc2)C(=O)N(C)CC3CC(F)(F)F)ccn1)c1ccc(F)cc1` (stereo not drawn) [Example 13, 2-(4-fluorophenyl)-N-{4-[5-methyl-4-oxo-3-phenyl-7-(2,2,2-trifluoroethyl)-4,5,6,7-tetrahydro-1H-pyrrolo[3,2-c]pyridin-2-yl]pyridin-2-yl}propanamide], the IC50 at CSNK1D stood at 3.9 nM; on CSNK1A1 it was 3.5 nM.
For `CC(C(=O)Nc1cc(-c2[nH]c3c(CC4CC4)cn(C)c(=O)c3c2-c2ccc(F)cc2)ccn1)c1ccc(F)cc1` (racemic) [Example 63, N-{4-[7-(cyclopropylmethyl)-3-(4-fluorophenyl)-5-methyl-4-oxo-4,5-dihydro-1H-pyrrolo[3,2-c]pyridin-2-yl]pyridin-2-yl}-2-(4-fluorophenyl)propanamide] the same measures were 8 nM and 12 nM.
For `CC(C(=O)Nc1cc(-c2[nH]c3c(c2-c2ccccc2)C(=O)NCC3(C)C)ccn1)c1ccc(F)cc1` (racemic) [Example 46, N-[4-(7,7-dimethyl-4-oxo-3-phenyl-4,5,6,7-tetrahydro-1H-pyrrolo[3,2-c]pyridin-2-yl)pyridin-2-yl]-2-(4-fluorophenyl)propanamide] the same measures were 3.3 nM and 2.7 nM.
As to `CC1(C)CNC(=O)c2c1[nH]c(-c1ccnc(NC(=O)C(CC(F)F)c3ccc(F)cc3)c1)c2-c1ccccc1` (single isomer, unassigned) [Example 44, N-[4-(7,7-dimethyl-4-oxo-3-phenyl-4,5,6,7-tetrahydro-1H-pyrrolo[3,2-c]pyridin-2-yl)pyridin-2-yl]-4,4-difluoro-2-(4-fluorophenyl)butanamide], the results for the IC50 at CSNK1D and on CSNK1A1 were 12 nM and 11 nM, respectively.
On the same counts, the results for `CN1CC(CC2CC2)c2[nH]c(-c3ccnc(NC(=O)C(CC(F)F)c4ccc(F)cc4)c3)c(-c3ccccc3)c2C1=O` (stereo not drawn) [Example 59, N-{4-[7-(cyclopropylmethyl)-5-methyl-4-oxo-3-phenyl-4,5,6,7-tetrahydro-1H-pyrrolo[3,2-c]pyridin-2-yl]pyridin-2-yl}-4,4-difluoro-2-(4-fluorophenyl)butanamide] are 3.6 nM and 4.9 nM.
For `CC1CN(C)C(=O)c2c1[nH]c(-c1ccnc(NC(=O)C(C)c3ccc(F)cc3)c1)c2-c1ccc(F)cc1` (stereo not drawn) [Example 29, 2-(4-fluorophenyl)-N-{4-[3-(4-fluorophenyl)-5,7-dimethyl-4-oxo-4,5,6,7-tetrahydro-1H-pyrrolo[3,2-c]pyridin-2-yl]pyridin-2-yl}propanamide] the same measures were 4.1 nM and 2.9 nM.
On the same counts, the results for `CC1(C)CNC(=O)c2c1[nH]c(-c1ccnc(NC(=O)C(CC(F)F)c3ccc(F)cc3)c1)c2-c1ccccc1` (single isomer, unassigned) [Example 45, N-[4-(7,7-dimethyl-4-oxo-3-phenyl-4,5,6,7-tetrahydro-1H-pyrrolo[3,2-c]pyridin-2-yl)pyridin-2-yl]-4,4-difluoro-2-(4-fluorophenyl)butanamide] are 2.7 nM and 2 nM.
On to `CC1CN(C)C(=O)c2c1[nH]c(-c1ccnc(NC(=O)C(CC(F)F)c3ccc(F)cc3)c1)c2-c1ccccc1` (stereo not drawn) [Example 39, N-{4-[5,7-dimethyl-4-oxo-3-phenyl-4,5,6,7-tetrahydro-1H-pyrrolo[3,2-c]pyridin-2-yl]pyridin-2-yl}-4,4-difluoro-2-(4-fluorophenyl)butanamide], for which the IC50 worked out at 3.7 nM at CSNK1D and 3 nM at CSNK1A1.
For `CN1CC(CC2CC2)c2[nH]c(-c3ccnc(NC(=O)Cc4ccc(F)cc4)c3)c(-c3ccc(F)cc3)c2C1=O` (racemic) [Example 61, N-{4-[7-(cyclopropylmethyl)-3-(4-fluorophenyl)-5-methyl-4-oxo-4,5,6,7-tetrahydro-1H-pyrrolo[3,2-c]pyridin-2-yl]pyridin-2-yl}-2-(4-fluorophenyl)acetamide] the same measures were 1.8 nM and 2 nM.
For `Cc1cn(C)c(=O)c2c(-c3ccccc3)c(-c3ccnc(NC(=O)C(CC(F)F)c4ccc(F)cc4)c3)[nH]c12` (racemic) [Example 40, N-[4-(5,7-dimethyl-4-oxo-3-phenyl-4,5-dihydro-1H-pyrrolo[3,2-c]pyridin-2-yl)pyridin-2-yl]-4,4-difluoro-2-(4-fluorophenyl)butanamide] the same measures were 4 nM and 4 nM.
On the same counts, the results for `CC(C(=O)Nc1cc(-c2[nH]c3c(c2-c2ccccc2)C(=O)N(C)C2(CCC2)C3)ccn1)c1ccc(F)cc1` (single isomer, unassigned; (+)) [Example 54, (+)-2-(4-fluorophenyl)-N-[4-(5′-methyl-4′-oxo-3′-phenyl-1′,4′,5′,7′-tetrahydrospiro[cyclobutane-1,6′-pyrrolo[3,2-c]pyridin]-2′-yl)pyridin-2-yl]propanamide] are 3.6 nM and 1.6 nM.

Values taken from patent publication US20230322767A1, “ARYL SUBSTITUTED PYRROLO-PYRIDINONES AND THERAPEUTIC USES THEREOF” (Bayer Aktiengesellschaft, priority 2020, published 2023).
